# Patent US20210284621A1 (priority 2018, published 2021)
# Tested on: LPS-induced PBMCs
# Experiment: Inflammatory cytokine release from LPS-induced PBMCs (Luminex)
# Type: cell-based, human
# Conditions: fold change from LPS-treated PBMCs, compounds 10 μM (DEX 1 μg/ml) 2 h, then LPS 0.1 μg/ml 24 h, negative = reduced
# In short: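 Human PBMCs from healthy donors pretreated 2 hours with compound at 10 μM (triplicate), then stimulated with 0.1 μg/ml LPS for 24 hours. Supernatant cytokines measured by magnetic Luminex; values given as fold change versus LPS-treated PBMCs, negative meaning reduction; cytotoxicity also assessed.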
# [1] = OOR = out of standard curve range
smiles,measurement,setting,value
"CCCCCCC(C)(C)c1cc(O)c2c(c1)OC(C)(C)[C@@H]1CC=C(C(=O)NC(C)(C)CCO)C[C@@H]21 [Compound 15, (6aR,10aR)-1-Hydroxy-N-(4-hydroxy-2-methylbutan-2-yl)-6,6-dimethyl-3-(2-methyloctan-2-yl)-6a,7,10,10a-tetrahydro-6H-benzo[c]chromene-9-carboxamide]",IL17A,,−3.1 fold change
same,IL-1β,,−5.9 fold change
same,IL-4,,−2.7 fold change
same,IL-6,,−107.7 fold change
same,IL-8,,−2.4 fold change
same,IL-10,,−299.9 fold change
same,MCP-1,,−213.2 fold change
same,TNFα,,−75.9 fold change
same,IL-12 (p70),[1],OOR
same,L-31,[1],OOR
